Source: patent US5686626A, “1,3-dihydro-1-amino-2H-indol-2-ones” (Hoechst Marion Roussel, Inc., priority 1995, dated 1997)
Read-outs that look alike come from different tables or passages of the source.

How the values were obtained:
[1] = Dark Avoidance Assay (scopolamine induced memory deficit reversal); assay type: in vivo, mice; conditions: Mus musculus, read-out: % of Animals With Scopolamine Induced Memory Deficit Reversal; for responders at 0.63 mg/kg: dose 0.63 mg/kg of body wt; for responders at 1.25 mg/kg: dose 1.25 mg/kg of body wt; for responders at 0.3 mg/kg: dose 0.3 mg/kg of body wt; for responders at 3 mg/kg: dose 3.0 mg/kg of body wt
Method: The compounds of the present invention are also useful in the treatment of various memory dysfunctions characterized by decreased cholinergic function such as Alzheimer's Disease.
In this assay, mice are tested for their ability to remember an unpleasant stimulus for a period of 24 hours. A mouse is placed in a chamber that contains a dark compartment; a strong incandescent light drives it to the dark compartment, where an electric shock is administered through metal plates on the floor. The animal is removed from the testing apparatus and tested again, 24 hours later, for the ability to remember the electric shock.
If scopolamine, an anticholinergic that is known to cause memory impairment, is administered before an animal's initial exposure to the test chambers, the animal re-enters the dark compartment shortly after being placed in the test chamber 24 hours later. The effect of scopolamine is blocked by an active test compound, resulting in a greater interval before re-entry into the dark compartment.
The results for an active compound are expressed as the percent of a group of animals in which the effect of scopolamine is blocked, as manifested by an increased interval between being placed in the test chamber and re-entering the dark compartment. Presented in Table 2 is the activity of some of the compounds of the invention in this assay.

[2] = phenyl-para-quinone writhing assay in mice (analgesia); assay type: in vivo; conditions: for ED50: Mus musculus, sc, read-out: ED50 of Writhing (subcutaneous dose at which 50% of the phenyl-para-quinone induced writhing is inhibited)
[3] = supramaximal electroshock (SES) assay (anticonvulsant activity); assay type: in vivo, male mouse (Charles River, CD-1); conditions: Mus musculus, ip, 0.5 h; male mice, i.p., 30 minute pretreat; read-out: ED50 (anticonvulsant, protection from extensor tonus)
Method: The compounds of the invention are also useful as anticonvulsants due to their anticonvulsant activity in mammals. Anticonvulsant activity is measured in the male mouse using the supramaximal electroshock (SES) assay described in Arch. Int. Pharmacodyn. 92:97-107, 1952. In this procedure, groups of male mice (Charles River, CD-1, 18-30 gm) are used. Drugs are prepared using distilled water and, if insoluble, a surfactant is added. Control animals receive vehicle. Drugs are routinely administered interperitoneally (i.p.) The dosage volume is 10 ml/kg. A primary screen is given a 30 minute pretreat. The animals' eyes are placed across the output terminals of an A.C. shocker that delivers 206 volts rms for 300 msec. Electrode paste coats the animals' eyes at the point of contact with the terminals. […] Protection is expressed as normalized percent inhibition relative to vehicle control.

[4] = mice, dose 1.0 mg/kg of body wt, retest after 24 hours

## O=C1Cc2ccccc2N1Nc1ccncc1 [1,3-Dihydro-1-(4-pyridinylamino)-2H-indol-2-one]
[1]; mice, dose 0.31 mg/kg of body wt, retest after 24 hours
  responders at 0.31 mg/kg: 27%
[1]; mice, retest after 24 hours
  responders at 0.63 mg/kg: 27%
  responders at 1.25 mg/kg: 27%
[2]
  ED50: 0.69 mg/kg

## CC1C(=O)N(Nc2ccncc2F)c2ccccc21 (stereo not drawn) [1,3-Dihydro-1-[(3-fluoro-4-pyridinyl)amino]-3-methyl-2H-indol-2-one hemifumarate]
[1]; mice, retest after 24 hours
  responders at 0.3 mg/kg: 27%
  responders at 3 mg/kg: 20%

## CCCN(c1ccncc1)N1C(=O)C(C)(C)c2ccccc21 [1,3-Dihydro-3,3-dimethyl-1-(propyl-4-pyridinylamino)-2H-indol-2-one]
[3]
  ED50: 30.7 mg/kg
[1]; mice, retest after 24 hours
  responders at 0.3 mg/kg: 20%

## CCCN(c1ccncc1F)N1C(=O)Cc2ccccc21 [1,3-Dihydro-1-[(3-fluoro-4-pyridinyl)-propylamino]-2H-indol-2-one]
[1]; mice, retest after 24 hours
  responders at 0.3 mg/kg: 20%
  responders at 3 mg/kg: 20%

## NN1C(=O)C(Cc2ccncc2)(Cc2ccncc2)c2ccccc21 [1-Amino-3,3-bis(4-pyridinylmethyl)-1,3-dihydro-2H-indol-2-one]
[1]; mice, retest after 24 hours
  responders at 0.3 mg/kg: 21%

## CCC1(c2ccccc2)C(=O)NC(=O)NC1=O [Phenobarbital, reference compound]
[3]
  ED50: 8.4 mg/kg

## CCCN(c1ccncc1)N1C(=O)Cc2ccccc21 [1,3-Dihydro-1-(propyl-4-pyridinylamino)-2H-indol-2-one]
[3]
  ED50: 15.9 mg/kg
[1]; mice, retest after 24 hours
  responders at 1.25 mg/kg: 27%
[2]; 20 mg/kg, s.c.
  % Inhibition of Writhing (% decrease in writhing at a given dose): -58%

## CC[C@@H]1C(=O)OC[C@@H]1Cc1cncn1C [Pilocarpine, reference compound]
[1]; mice, retest after 24 hours
  responders at 1.25 mg/kg: 19%

## CCCN(c1ccncc1F)N1C(=O)C(C)(C)c2ccccc21 [1,3-dihydro-3,3-dimethyl-1-[4-(3-fluoropyridinyl)propylamino]2H-indol-2-one]
[1]; mice, retest after 24 hours
  responders at 0.3 mg/kg: 21%
[1]; [4]
  responders at 1 mg/kg: 27%

## O=C1Cc2ccccc2N1Nc1ccncc1F [1,3-Dihydro-1-(3-fluoro-4-pyridinylamino)-2H-indol-2-one]
[1]; [4]
  responders at 1 mg/kg: 27%
[1]; mice, retest after 24 hours
  responders at 3 mg/kg: 27%

## CCCN(c1ccncc1)N1C(=O)C2(CCN(C)CC2)c2ccccc21 [1'Methyl-1-(propyl-4-pyridinylamino)spiro-[3H-indole-3,4'-piperidin]-2(1 H)-one]
[1]; 24 h
  responders at 1 mg/kg: 20%

## O=C(O)c1ccccc1O [Salicylic Acid, reference compound]
[2]
  ED50: 3.28 mg/kg

## CCCN(c1ccncc1)N1C(=O)C2(Cc3ccccc3C2)c2ccccc21 [1,3-dihydro-1'-(propyl-4-pyridinylamino)spiro[2H-indene-2,3'-[3H]indol]-2'(1'H)-one]
[1]; mice, retest after 24 hours
  responders at 3 mg/kg: 25%

## Nc1c2c(nc3ccccc13)CCCC2 [Tacrine, reference compound]
[1]; mice, retest after 24 hours
  responders at 0.63 mg/kg: 13%
